Experimental data as given in PMC8185074, “Anchor extension: a structure-guided approach to design cyclic peptides targeting enzyme active sites” (Nature Communications, 2021).
Where two headings read alike, the source gives them in different places. Peptide text beside a SMILES is read from it.

Experiments:
Format in all cases: biochemical
[1] = target: T1, HDAC1 (Homo sapiens, UniProt Q13547); assay: HDAC1 inhibition, full IC50 measurement (Reaction Biology; fluorogenic p53 peptide RHKK(Ac)AMC); details: t1/t2 replicates
T1 construct: purchased Reaction Biology Corporation (assay run by the CRO)
Outline: (§1)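 The reaction was a 1 h, 30 °C incubation of enzyme, acoustically added peptide and 50 μM p53-derived AMC substrate in pH 8.0 Tris buffer with NaCl, KCl, MgCl2, 1 mg/ml BSA and 1% DMSO. Duplicate values were averaged.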

[2] = target: T2, HDAC2 (Homo sapiens, UniProt Q92769); assay: Initial HDAC2 IC50 estimate (BPS Biosciences HDAC fluorogenic assay kit)
T2 construct: purchased Reaction Biology Corporation (assay run by the CRO)
Outline: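 Inhibition measured by kit-based fluorogenic HDAC activity assays, with each point in duplicate or triplicate. Values come from a full 1 µM–100 pM series (1:10 steps) or are range estimates from just 20 nM and 200 nM.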

[3] = target: T2, HDAC2; assay: HDAC2 inhibition, full IC50 measurement (Reaction Biology; fluorogenic p53 peptide RHKK(Ac)AMC)
Outline: as §1

[4] = Supplementary Dataset 2, read-out: HDAC2 activity (initial activity)

T2 sequence (Q92769 whole entry): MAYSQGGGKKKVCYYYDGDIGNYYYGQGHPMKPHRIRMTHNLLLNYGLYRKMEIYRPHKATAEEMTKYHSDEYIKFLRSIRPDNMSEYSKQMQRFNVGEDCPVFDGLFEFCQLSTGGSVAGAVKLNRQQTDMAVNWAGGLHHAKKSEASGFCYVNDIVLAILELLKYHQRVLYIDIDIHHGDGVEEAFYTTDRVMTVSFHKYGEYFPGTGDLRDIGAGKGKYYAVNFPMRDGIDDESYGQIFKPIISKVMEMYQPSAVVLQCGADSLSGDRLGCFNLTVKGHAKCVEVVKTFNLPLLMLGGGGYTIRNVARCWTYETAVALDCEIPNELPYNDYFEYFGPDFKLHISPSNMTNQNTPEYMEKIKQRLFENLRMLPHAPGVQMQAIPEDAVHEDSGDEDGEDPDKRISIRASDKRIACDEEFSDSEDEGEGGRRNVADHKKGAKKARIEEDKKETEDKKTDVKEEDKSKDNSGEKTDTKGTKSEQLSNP
T1 sequence (Q13547 whole entry): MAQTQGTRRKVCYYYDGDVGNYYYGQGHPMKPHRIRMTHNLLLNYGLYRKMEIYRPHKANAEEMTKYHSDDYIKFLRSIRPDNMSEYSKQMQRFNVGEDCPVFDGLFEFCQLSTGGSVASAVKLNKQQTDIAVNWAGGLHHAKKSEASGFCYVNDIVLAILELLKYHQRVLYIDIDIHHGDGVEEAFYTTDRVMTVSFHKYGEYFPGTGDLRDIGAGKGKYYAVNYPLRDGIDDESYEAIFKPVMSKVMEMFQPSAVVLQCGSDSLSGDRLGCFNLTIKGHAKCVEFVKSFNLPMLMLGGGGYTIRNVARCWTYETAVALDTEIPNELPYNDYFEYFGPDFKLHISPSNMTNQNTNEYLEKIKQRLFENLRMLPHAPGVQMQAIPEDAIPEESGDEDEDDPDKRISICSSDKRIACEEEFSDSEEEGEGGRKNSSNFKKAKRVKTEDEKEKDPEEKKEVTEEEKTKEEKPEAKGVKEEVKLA

N=C(N)NCCC[C@@H]1NC(=O)[C@H](Cc2c[nH]c3ccccc23)NC(=O)[C@H](CC(=O)O)NC(=O)[C@@H](CO)NC(=O)[C@H](Cc2c[nH]c3ccccc23)NC(=O)[C@H](CCCCCS)NC(=O)[C@H](CCC(N)=O)NC1=O [des4.1.0, SHA-Trp-dSer-Asp-Trp-Arg-Gln] (HELM PEPTIDE1{D.W.R.Q.[O=C([C@H](CCCCCS)N[*:1])[*:2]].W.[dS]}$PEPTIDE1,PEPTIDE1,1:R1-7:R2$$$V2.0)
HDAC1 activity raw data (signal) ([1]; peptide conc. 1.00E-05 M, listed as des4.1.0_t1): 765 | HDAC1 activity raw data (signal) ([1]; peptide conc. 1.00E-05 M, listed as des4.1.0_t2): 43 | HDAC1 activity raw data (signal) ([1]; peptide conc. 1.11E-06 M, listed as des4.1.0_t1): 72647 | HDAC1 activity raw data (signal) ([1]; peptide conc. 1.11E-06 M, listed as des4.1.0_t2): 40074 | HDAC1 activity raw data (signal) ([1]; peptide conc. 1.23E-07 M, listed as des4.1.0_t1): 531723 | HDAC1 activity raw data (signal) ([1]; peptide conc. 1.23E-07 M, listed as des4.1.0_t2): 406309 | HDAC1 activity raw data (signal) ([1]; peptide conc. 1.37E-08 M, listed as des4.1.0_t1): 925044 | HDAC1 activity raw data (signal) ([1]; peptide conc. 1.37E-08 M, listed as des4.1.0_t2): 865901 | HDAC1 activity raw data (signal) ([1]; peptide conc. 1.52E-09 M, listed as des4.1.0_t1): 1099796 | HDAC1 activity raw data (signal) ([1]; peptide conc. 1.52E-09 M, listed as des4.1.0_t2): 1072226 | HDAC1 activity raw data (signal) ([1]; peptide conc. 3.33E-06 M, listed as des4.1.0_t1): 17702 | HDAC1 activity raw data (signal) ([1]; peptide conc. 3.33E-06 M, listed as des4.1.0_t2): 11850 | HDAC1 activity raw data (signal) ([1]; peptide conc. 3.70E-07 M, listed as des4.1.0_t1): 193534 | HDAC1 activity raw data (signal) ([1]; peptide conc. 3.70E-07 M, listed as des4.1.0_t2): 155666 | HDAC1 activity raw data (signal) ([1]; peptide conc. 4.12E-08 M, listed as des4.1.0_t1): 733473 | HDAC1 activity raw data (signal) ([1]; peptide conc. 4.12E-08 M, listed as des4.1.0_t2): 658176 | HDAC1 activity raw data (signal) ([1]; peptide conc. 4.57E-09 M, listed as des4.1.0_t1): 1015864 | HDAC1 activity raw data (signal) ([1]; peptide conc. 4.57E-09 M, listed as des4.1.0_t2): 988230 | HDAC1 activity raw data (signal) ([1]; peptide conc. 5.08E-10 M, listed as des4.1.0_t1): 1225387 | HDAC1 activity raw data (signal) ([1]; peptide conc. 5.08E-10 M, listed as des4.1.0_t2): 1041994 | IC50 [2, 4]: 100 nM | HDAC2 activity raw data (signal) ([3]; Conc. 1.00E-05 M, t1): -10519 | HDAC2 activity raw data (signal) ([3]; Conc. 1.00E-05 M, t2): -26565 | HDAC2 activity raw data (signal) ([3]; Conc. 1.11E-06 M, t1): 79842 | HDAC2 activity raw data (signal) ([3]; Conc. 1.11E-06 M, t2): 48499 | HDAC2 activity raw data (signal) ([3]; Conc. 1.23E-07 M, t1): 872533 | HDAC2 activity raw data (signal) ([3]; Conc. 1.23E-07 M, t2): 734242 | HDAC2 activity raw data (signal) ([3]; Conc. 1.37E-08 M, t1): 1715554 | HDAC2 activity raw data (signal) ([3]; Conc. 1.37E-08 M, t2): 1674658 | HDAC2 activity raw data (signal) ([3]; Conc. 1.52E-09 M, t1): 1955635 | HDAC2 activity raw data (signal) ([3]; Conc. 1.52E-09 M, t2): 1838943 | HDAC2 activity raw data (signal) ([3]; Conc. 3.33E-06 M, t1): 20013 | HDAC2 activity raw data (signal) ([3]; Conc. 3.33E-06 M, t2): 16353 | HDAC2 activity raw data (signal) ([3]; Conc. 3.70E-07 M, t1): 220224 | HDAC2 activity raw data (signal) ([3]; Conc. 3.70E-07 M, t2): 182542 | HDAC2 activity raw data (signal) ([3]; Conc. 4.12E-08 M, t1): 1421192 | HDAC2 activity raw data (signal) ([3]; Conc. 4.12E-08 M, t2): 1355422 | HDAC2 activity raw data (signal) ([3]; Conc. 4.57E-09 M, t1): 1969255 | HDAC2 activity raw data (signal) ([3]; Conc. 4.57E-09 M, t2): 1793366 | HDAC2 activity raw data (signal) ([3]; Conc. 5.08E-10 M, t1): 1865278 | HDAC2 activity raw data (signal) ([3]; Conc. 5.08E-10 M, t2): 1807628

N=C(N)NCCC[C@@H]1NC(=O)[C@@H](CCCNC(=N)N)NC(=O)[C@H]2CCCN2C(=O)[C@@H](Cc2c[nH]cn2)NC(=O)[C@H](Cc2ccc(O)cc2)NC(=O)[C@H](CCCCCS)NC(=O)[C@H](CCc2ccccc2)NC(=O)[C@@H](CO)NC(=O)[C@H](CC(=O)O)NC1=O [des3.3.1, SHA-Tyr-dHis-dPro-dArg-Arg-Asp-dSer-C27] (HELM PEPTIDE1{[O=C([C@H](CCCCCS)N[*:1])[*:2]].Y.[dH].[dP].[dR].R.D.[dS].[O=C([C@H](CCc1ccccc1)N[*:1])[*:2]]}$PEPTIDE1,PEPTIDE1,1:R1-9:R2$$$V2.0)
HDAC1 activity raw data (signal) ([1]; peptide conc. 1.00E-06 M, listed as des3.3.1_t1): 15410 | HDAC1 activity raw data (signal) ([1]; peptide conc. 1.00E-06 M, listed as des3.3.1_t2): 7555 | HDAC1 activity raw data (signal) ([1]; peptide conc. 1.11E-07 M, listed as des3.3.1_t1): 112128 | HDAC1 activity raw data (signal) ([1]; peptide conc. 1.11E-07 M, listed as des3.3.1_t2): 105674 | HDAC1 activity raw data (signal) ([1]; peptide conc. 1.23E-08 M, listed as des3.3.1_t1): 518542 | HDAC1 activity raw data (signal) ([1]; peptide conc. 1.23E-08 M, listed as des3.3.1_t2): 461507 | HDAC1 activity raw data (signal) ([1]; peptide conc. 1.37E-09 M, listed as des3.3.1_t1): 889775 | HDAC1 activity raw data (signal) ([1]; peptide conc. 1.37E-09 M, listed as des3.3.1_t2): 866345 | HDAC1 activity raw data (signal) ([1]; peptide conc. 1.52E-10 M, listed as des3.3.1_t1): 1024825 | HDAC1 activity raw data (signal) ([1]; peptide conc. 1.52E-10 M, listed as des3.3.1_t2): 1088311 | HDAC1 activity raw data (signal) ([1]; peptide conc. 3.33E-07 M, listed as des3.3.1_t1): 46006 | HDAC1 activity raw data (signal) ([1]; peptide conc. 3.33E-07 M, listed as des3.3.1_t2): 42579 | HDAC1 activity raw data (signal) ([1]; peptide conc. 3.70E-08 M, listed as des3.3.1_t1): 265387 | HDAC1 activity raw data (signal) ([1]; peptide conc. 3.70E-08 M, listed as des3.3.1_t2): 253770 | HDAC1 activity raw data (signal) ([1]; peptide conc. 4.12E-09 M, listed as des3.3.1_t1): 789498 | HDAC1 activity raw data (signal) ([1]; peptide conc. 4.12E-09 M, listed as des3.3.1_t2): 714925 | HDAC1 activity raw data (signal) ([1]; peptide conc. 4.57E-10 M, listed as des3.3.1_t1): 1015951 | HDAC1 activity raw data (signal) ([1]; peptide conc. 4.57E-10 M, listed as des3.3.1_t2): 1019110 | HDAC1 activity raw data (signal) ([1]; peptide conc. 5.08E-11 M, listed as des3.3.1_t1): 1072870 | HDAC1 activity raw data (signal) ([1]; peptide conc. 5.08E-11 M, listed as des3.3.1_t2): 1116290 | IC50 ([2]; Supp. Table 4, rough estimates, for promising hits full measurements, read-out: HDAC2 activity (initial values for HDAC2 IC50)): 25 nM | IC50 [2, 4]: 20 nM | HDAC2 activity raw data (signal) ([3]; Conc. 1.00E-06 M, t1): 33408 | HDAC2 activity raw data (signal) ([3]; Conc. 1.00E-06 M, t2): 20115 | HDAC2 activity raw data (signal) ([3]; Conc. 1.11E-07 M, t1): 236730 | HDAC2 activity raw data (signal) ([3]; Conc. 1.11E-07 M, t2): 242180 | HDAC2 activity raw data (signal) ([3]; Conc. 1.23E-08 M, t1): 774356 | HDAC2 activity raw data (signal) ([3]; Conc. 1.23E-08 M, t2): 764329 | HDAC2 activity raw data (signal) ([3]; Conc. 1.37E-09 M, t1): 1033572 | HDAC2 activity raw data (signal) ([3]; Conc. 1.37E-09 M, t2): 1142758 | HDAC2 activity raw data (signal) ([3]; Conc. 1.52E-10 M, t1): 1093848 | HDAC2 activity raw data (signal) ([3]; Conc. 1.52E-10 M, t2): 1228270 | HDAC2 activity raw data (signal) ([3]; Conc. 3.33E-07 M, t1): 99662 | HDAC2 activity raw data (signal) ([3]; Conc. 3.33E-07 M, t2): 91701 | HDAC2 activity raw data (signal) ([3]; Conc. 3.70E-08 M, t1): 494195 | HDAC2 activity raw data (signal) ([3]; Conc. 3.70E-08 M, t2): 473509 | HDAC2 activity raw data (signal) ([3]; Conc. 4.12E-09 M, t1): 948142 | HDAC2 activity raw data (signal) ([3]; Conc. 4.12E-09 M, t2): 1005576 | HDAC2 activity raw data (signal) ([3]; Conc. 4.57E-10 M, t1): 1113632 | HDAC2 activity raw data (signal) ([3]; Conc. 4.57E-10 M, t2): 1221209 | HDAC2 activity raw data (signal) ([3]; Conc. 5.08E-11 M, t1): 1186904 | HDAC2 activity raw data (signal) ([3]; Conc. 5.08E-11 M, t2): 1232500
